In US9682999B2, “Benzofuran compounds for the treatment of hepatitis C virus infections” (Glaxo Group Limited, priority 2011, dated 2017):
pEC50: −log10 of the molar value.

Columns and labels:
[1] = test system: sub-genomic HCV NS3-NS5B replicon genotype 1b C316N (Huh-7 cells); experiment: Replicon luciferase cell based assay, genotype 1b C316N; conditions: Hepatitis C virus, Huh-7, 48 h, read-out: EC50 1b 316N
Protocol: (§1) 150 μL of a 1 mM stock solution in DMSO of each test compound was transferred into in the first column of a 96 well, V-bottom microplate, to give 200 times the top concentration of the required dilution series. Aliquots of 50 μL were added to each well of the remaining rows containing 100 μL of DMSO giving a 1:3 dilution series over ten points. Columns 11 and 12 contained DMSO only for the positive and negative control, respectively. 10 μL of each well were transferred into 90 μL of DMEM medium (Invitrogen #41965-039) supplemented with 5% v/v foetal calf serum, 1% v/v non-essential amino acids solution, 100 units/ml penicillin, 100 μg/ml streptomycin and 2 mM L-glutamine to give 20 times the top concentration of the required dilution series.
(§2) Suspensions were prepared from cultures of Huh-7 cells stably transfected with sub-genomic HCV NS3-NS5B replicons of either genotype 1b (the ET subline described by Pietschmann, T., Lohmann, V., Kaul, A., Krieger, N., Rinck, G., Rutter, G., Strand, D. & Bartenschlager, R., Journal of Virology, 2002, 76, 4008-4021), genotype 1a (subline 1.19 constructed in-house from H77 SG-Neo containing adaptive mutations P1496L and S2204I as described by Blight, K. J., McKeating, J. A., Marcotrigiano, J., and Rice, C. M. Journal of Virology, 2003, 77, 3180-3190), genotype 1b C316N (constructed in-house by site directed mutagenesis of the NS5B gene of the ET subline), or genotype 1a C316Y (constructed in-house by site directed mutagenesis of the NS5B gene of H77 SG-Neo containing adaptive mutations P1496L and S2204I as described by Blight, K. J., McKeating, J. A., Marcotrigiano, J., and Rice, C. M. Journal of Virology, 2003, 77, 3180-3190) linked to a firefly luciferase reporter gene. Monolayers nearing confluency were stripped from growth flasks with versene-trypsin solution and the cells re-suspended in assay medium comprising DMEM. 95 μL of suspension containing either 15,000 cells (genotype 1b luciferase replicon) or 20,000 cells (genotype 1a luciferase replicon) were added to all wells of a 96 well plate (Perkin Elmer, #6005686), except medium controls in column 12 of the assay plate. The cell suspension was dosed with 5 μL of compound solution and the plate was incubated for 48 hours at 37° C. in a 5% CO2 atmosphere.
(§3) For toxicity the cells in one plate were treated with Cell Titer Glo (Promega, #G7573). A solution of Cell Titer Glo was prepared according to the manufacturer's instructions, and 100 μL added to each well. The plate was then read for luminescence on an Envision. For potency a solution of Steady Glo (Promega, #E2550) was prepared according to the manufacturer's instructions and 100 μL added to each well. After a twenty minute incubation the plate was then read for luminescence on an Envision.
(§4) Potency: The luminescence values from all compound-free wells containing cells were averaged to obtain a positive control value. The mean luminescence value from the compound-free wells that had received no cells was used to provide the negative (background) control value. The readings from the wells at each compound concentration were taken and after the subtraction of the mean background from all values, were expressed as a percentage of the positive control signal. The quantifiable and specific reduction of luciferase signal in the presence of a drug is a direct measure of replicon inhibition. BioAssay Enterprise (CamebridgeSoft) with the XC50 module for curve fitting was used to plot the curve of percentage inhibition against compound concentration and derive the 50% inhibitory concentration (EC50) for the compound. EC50 is the effective concentration, that is, the concentration of compound where 50% maximal effect is observed. The EC50 values of two identical plates were averaged. The results are presented in Table 1 as EC50 for genotypes (GT) 1a, 1b, 1b 316N and 1a 316Y.

[2] = test system: sub-genomic HCV NS3-NS5B replicon genotype 1a C316Y (Huh-7 cells); experiment: Replicon luciferase cell based assay, genotype 1a C316Y; conditions: Hepatitis C virus, Huh-7, 48 h, read-out: EC50 1a 316Y
Protocol: as §1, §2, §3, §4

[3] = In vivo pharmacokinetic study, rat; conditions: for DNAUC / T 1/2: Rat; for clearance / Vd / bioavailability: rat, blood; for clearance / Vd: intravenous; for Vd: read-out: Vss; for bioavailability: oral
Protocol: (§5) In vivo pharmacokinetic studies were conducted in mouse, rat, dog, or cynomolgus monkey to determine clearance, oral exposure and bioavailability (% F). Solution doses of the compounds were administered intravenously through catheters or orally by gavage. Blood samples were collected at the following time points (n=2 or 3/route/species): 0.083 (IV only), 0.167 (IV only), 0.25, 0.5, 1, 2, 4, 6, 8, 12, and 24 h. Non-compartmental pharmacokinetic parameters were determined using Phoenix Winnonlin 6.1 (Pharsight, Mountain View, Calif.). Bioavailability of the oral formulation of each compound were calculated as the ratio of the oral dose normalized AUCinf to the intravenous dose normalized AUCinf. Results are expressed in Table 2.

[4] = test system: sub-genomic HCV NS3-NS5B replicon genotype 1a (Huh-7 cells); experiment: Replicon luciferase cell based assay, genotype 1a; conditions: Hepatitis C virus; Huh-7 genotype 1a luciferase replicon, 48 hours; read-out: EC50 GT 1a
Protocol: as §1, §2, §3, §4

[5] = In vivo pharmacokinetic study, dog; conditions: for DNAUC / T 1/2: Dog; for clearance / Vd / bioavailability: dog, blood; for clearance / Vd: intravenous; for Vd: read-out: Vss; for bioavailability: oral
Protocol: as §5

[6] = test system: sub-genomic HCV NS3-NS5B replicon genotype 1b (Huh-7 cells); experiment: Replicon luciferase cell based assay, genotype 1b; conditions: Hepatitis C virus; Huh-7 genotype 1b luciferase replicon, 48 hours; read-out: EC50 GT1b
Protocol: as §1, §2, §3, §4

[7] = In vivo pharmacokinetic study, mouse; conditions: for clearance / Vd / bioavailability: blood; for clearance / Vd: intravenous; for Vd: read-out: Vss; for bioavailability: oral
Protocol: as §5

[8] = Hepatocyte incubations, metabolic stability; assay type: in vitro ADME; design: dose or concentration left out as unconfirmed; conditions: cryopreserved human hepatocytes, 0.25×10^6 cells, up to 120 min, 37 C
Protocol: Hepatocyte incubations were conducted using cryopreserved hepatocytes purchased from CellzDirect (Durham, N.C.). Cryopreserved hepatocytes were removed from liquid nitrogen and thawed according to XenoTech's guidelines listed in “XenoTech Protocol for Thawing Cryopreserved Hepatocytes” using Hepatocyte Isolation Kit K2000 (Dec. 13, 2004). Hepatocytes were diluted to 1 million cells in 1 mL of Williams E media containing 25 mM HEPES buffer and 2 mM Glutamax.
Hepatocyte incubations were carried out in 96-well plates on an Eppendorf shaker at 350 rpm at 37 C. Reaction mixtures consisted of 0.25×10^6 cells and […] test compound (to maintain a 0.05% final DMSO concentration) in a final volume of 0.5 mL. An initial time-point (t0) was collected and subsequent aliquots were collected at 15, 30, 60, 90, and 120 min. Reactions were terminated by transferring […] of the incubation mixture into a 96-well plate containing […] of an organic mixture [acetonitrile and methanol (80:20)] at 4° C. Precipitated protein was removed by centrifugation and the resultant supernatant was transferred to a new 96-well polypropylene plate for LC/MS/MS analysis. Drug-free matrix control and 2 QC standards (phenacetin and propranolol) were included in each experiment and treated in the same manner as test compound.
Metabolic stability expressed as the percentage of parent compound remaining was calculated from the peak area ratio of compound remaining after incubation (tx) compared to the time zero (t0) incubation.
The half-life (t1/2) was calculated using the following equation: […]
Where K is the slope of the ln % remaining vs. time regression. Half-life values were only reported when at least 15% loss of parent compound was observed.

[9] = In vivo pharmacokinetic study, monkey; design: species or system cynomolgus monkey; conditions: for clearance / Vd / bioavailability: cynomolgus monkey; for clearance / Vd: intravenous; for Vd: read-out: Vss; for bioavailability: oral
Protocol: as §5

SMILES | pEC50 [1] | pEC50 [2] | DNAUC [3] [ng·h/mL/mg/kg] | T 1/2 [3] [H] | clearance [3] [mL/min/kg] | Vd [3] [L/kg] | bioavailability [3] [%] | pEC50 [4] | DNAUC [5] [ng·h/mL/mg/kg] | T 1/2 [5] [H] | clearance [5] [mL/min/kg] | Vd [5] [L/kg] | bioavailability [5] [%] | pEC50 [6] | DNAUC ([7]; Mouse) [ng·h/mL/mg/kg] | T 1/2 ([7]; Mouse) [H] | half-life [8] [min] | T 1/2 ([9]; Monkey) [H] | clearance ([9]; blood) [mL/min/kg] | Vd ([9]; blood) [L/kg] | other results
CNC(=O)c1c(-c2ccc(F)cc2)oc2cc(N(c3ccc(B(O)O)c(Cl)c3)S(C)(=O)=O)c(C3CC3)cc12 [Example 1, (2-Chloro-4-(N-(5-cyclopropyl-2-(4-fluorophenyl)-3-(methylcarbamoyl)benzofuran-6-yl)methylsulfonamido)phenyl)boronic acid] | 8.00 to 9.00 | 8.00 to 9.00 | 567 | 2.9 | 7.5 | 1.3 | 23 | 8.00 to 9.00 | 6438 | 8.7 | 2.3 | 1.6 | 83 | 8.00 to 9.00 | 6688 | 5.5 | > 360 | 3.7 | 2.2 | 0.5 | clearance ([7]; mouse): 0.9 mL/min/kg; Vd ([7]; mouse): 0.4 L/kg; bioavailability ([7]; mouse): 37%; DNAUC ([9]; Monkey): 2953 ng·h/mL/mg/kg; bioavailability ([9]; blood): 51%
CNC(=O)c1c(-c2ccc(F)cc2)oc2cc(N(c3cc(Cl)c4c(c3)COB4O)S(C)(=O)=O)c(C3CC3)cc12 [Example 15, 6-(N-(7-chloro-1-hydroxy-1,3-dihydrobenzo[c][1,2]oxaborol-5-yl)methylsulfonamido)-5-cyclopropyl-2-(4-fluorophenyl)-N-methylbenzofuran-3-carboxamide] | 8.00 to 9.00 | 6.70 to 7.96 | 1089 | 2.8 | 6.9 | 0.9 | 43 | 8.00 to 9.00 | 11480 | 6.9 | 1.2 | 0.6 | 82 | 8.00 to 9.00 | 14603 | 8.4 | > 360 | 3.7 | 5.7 | 1.2 | clearance ([7]; mouse): 0.7 mL/min/kg; Vd ([7]; mouse): 0.4 L/kg; bioavailability ([7]; mouse): 39%
CNC(=O)c1c(-c2ccc(F)cc2)oc2cc(N(Cc3cc(F)c4c(c3)COB4O)S(C)(=O)=O)c(C3CC3)cc12 [A] | – | – | 541 | 1.7 | 14.5 | 1 | 47 | – | 1074 | 5.1 | 12.4 | 3.5 | 71 | – | – | – | > 360 | 2.1 | 70.1 | 6.3 | DNAUC ([7]; Mouse (avg)): 9344 ng·h/mL/mg/kg; T 1/2 ([7]; Mouse (avg)): 4.3 H; clearance ([7]; Mouse (avg)): 0.9 mL/min/kg; Vd ([7]; Mouse (avg)): 0.3 L/kg; bioavailability ([7]; Mouse (avg)): 51%; DNAUC ([9]; Monkey): 33 ng·h/mL/mg/kg; bioavailability ([9]; blood): 13%
CNC(=O)c1c(-c2ccc(F)cc2)oc2cc(N(Cc3ccc(B(O)O)c(F)c3)S(C)(=O)=O)c(C3CC3)cc12 [D] | – | – | 403 | 2.2 | 18.6 | 0.8 | 45 | – | 1147 | 4.5 | 10.8 | 3.6 | 70 | – | – | – | 61.6 | – | – | – | DNAUC ([7]; Mouse (avg)): 4108 ng·h/mL/mg/kg; T 1/2 ([7]; Mouse (avg)): 5 H; clearance ([7]; Mouse (avg)): 1.4 mL/min/kg; Vd ([7]; Mouse (avg)): 0.6 L/kg; bioavailability ([7]; Mouse (avg)): 37%; DNAUC ([9]; Monkey (plasma)): 101 ng·h/mL/mg/kg; T 1/2 ([9]; Monkey (plasma)): 1.1 H; clearance ([9]; Monkey (plasma)): 48.4 mL/min/kg; Vd ([9]; Monkey (plasma)): 1.8 L/kg; bioavailability ([9]; Monkey (plasma)): 28%
